Assay results reported in paper PMC10318822, “Phase 1 dose-escalation study to evaluate the safety, tolerability, pharmacokinetics, and anti-tumor activity of FCN-159 in adults with neurofibromatosis type 1-related unresectable plexiform neurofibromas” (BMC Medicine, 2023).
“Also recorded” adds a separate entry of the source.

Assays:
[1] = Plasma pharmacokinetics of FCN-159, non-compartmental analysis; type: in vivo, human; conditions: for AUCtau / CLss/F / Cavg,ss / Cmax,ss / Cmin,ss / ARAUC0-t / ARCmax / AUC0-t / AUC0-∞ / CL/F / Cmax / T1/2 / Vd/F: Geomean; for ARAUC0-t: AUC0-t (steady state) / AUC0-t; for ARCmax: Cmax (steady state) / Cmax; for Tmax: median
Description: In order to study the PK characteristics of FCN-159 in plasma, blood samples were collected pre-dose and 0.5, 1, 2, 3, 4, 6, and 10 h post dose on days 1 and 28 of cycle 1, and pre-dose only on days 2, 8, and 15 of cycle 1 and day 1 of cycle 2. Plasma PK parameters of FCN-159 in each dose group were analyzed with standard non-compartmental PK methods using Phoenix WinNonlin, v8.2. PK parameters included area under the curve (AUC)(0-last), AUC(0-∞), maximum plasma concentration (Cmax), time to maximum plasma concentration (Tmax), half-life (T1/2), oral clearance (CL/F), and volume of distribution (Vd/F) for the single-dose regimen and AUC(0-tau), Cmax, Tmax, minimum steady-state plasma concentration (Css,min), mean steady-state plasma concentration (Css, avg), accumulation ratio for AUC (ARAUC), and apparent oral clearance at steady state (CLss/F) for the multiple dose regimen.
Data were summarized using descriptive statistics.
Dose proportionality is assessed by fitting the relationship of the ln-transformed PK parameters (Cmax, AUC) to the ln-transformed dose using a power model loge(Y)=α+βloge(Dose)+ε.

[2] = system: MAPK pathway (phosphorylation of MEK kinase and intracellular ERK); set-up: method as in doi:10.1158/1538-7445.AM2020-1951; conditions: human colon cancer cells; preventing phosphorylation of MEK kinase and intracellular ERK; cited from earlier work
[3] = system: patients with advanced NRAS mut+ melanoma; set-up: method as in PMID 36113242; conditions: cited from earlier work

For Cn1c(=O)c(F)c(Nc2ccc(I)cc2F)c2c(=O)n(C3CC3)nc(-c3cccc(NS(=O)(=O)C4CC4)c3)c21 [FCN-159], the “Dose proportionality of exposure” value ([1]; Cmax and AUCtau at steady state 4–8 mg, PK profile between 4 and 12 mg) was “approximately linear; also recorded: roughly dose proportional”, the “Median Tmax” value ([1]; across all dosing regimens) was 1.21 to 2.18 h and the “Mean accumulation ratio of AUC” value ([1]; from each cohort) was 1.5–2.0. For the same compound, the AUCtau ([1]; multiple dose, 4 mg, N 3) was 392 ng·h/mL, the CLss/F ([1]; multiple dose, 4 mg, N 3) was 10.2 L/h and the “Cavg,ss” value ([1]; multiple dose, 4 mg, N 3) was 16.3 ng/mL. For the same compound, the “Cmax,ss” value ([1]; multiple dose, 4 mg, N 3) was 45.0 ng/mL, the “Cmin,ss” value ([1]; multiple dose, 4 mg, N 3) was 8.54 ng/mL and the ARAUC0-t ([1]; multiple dose, 4 mg, N 3) was 1.56. It also gave an ARCmax ([1]; multiple dose, 4 mg, N 3) of 1.25, a Tmax ([1]; multiple dose, 4 mg, N 3) of 1.92 h and an AUCtau ([1]; multiple dose, 6 mg, N 4) of 532 ng·h/mL. The CLss/F ([1]; multiple dose, 6 mg, N 4) was 11.3 L/h, the “Cavg,ss” value ([1]; multiple dose, 6 mg, N 4) was 22.2 ng/mL and the “Cmax,ss” value ([1]; multiple dose, 6 mg, N 4) was 52.2 ng/mL. The “Cmin,ss” value ([1]; multiple dose, 6 mg, N 4) was 12.2 ng/mL, the ARAUC0-t ([1]; multiple dose, 6 mg, N 4) was 2.03 and the ARCmax ([1]; multiple dose, 6 mg, N 4) was 1.37. The Tmax ([1]; multiple dose, 6 mg, N 4) was 1.24 h, the AUCtau ([1]; multiple dose, 8 mg, N 7) was 723 ng·h/mL and the CLss/F ([1]; multiple dose, 8 mg, N 7) was 11.1 L/h. For the same compound, the “Cavg,ss” value ([1]; multiple dose, 8 mg, N 7) was 30.1 ng/mL, the “Cmax,ss” value ([1]; multiple dose, 8 mg, N 7) was 82.5 ng/mL and the “Cmin,ss” value ([1]; multiple dose, 8 mg, N 7) was 15.4 ng/mL. For the same compound, the ARAUC0-t ([1]; multiple dose, 8 mg, N 7) was 1.75, the ARCmax ([1]; multiple dose, 8 mg, N 7) was 1.36 and the Tmax ([1]; multiple dose, 8 mg, N 7) was 1.50 h. The AUC0-t ([1]; single dose, 4 mg, N 3) was 250 ng·h/mL, the “AUC0-∞” value ([1]; single dose, 4 mg, N 3) was 370 ng·h/mL and the CL/F ([1]; single dose, 4 mg, N 3) was 10.8 L/h. For the same compound, the Cmax ([1]; single dose, 4 mg, N 3) was 36.0 ng/mL, the T1/2 ([1]; single dose, 4 mg, N 3) was 16.2 h and the Vd/F ([1]; single dose, 4 mg, N 3) was 253 L. For the same compound, the Tmax ([1]; single dose, 4 mg, N 3) was 1.43 h, the AUC0-t ([1]; single dose, 6 mg, N 4) was 262 ng·h/mL and the “AUC0-∞” value ([1]; single dose, 6 mg, N 4) was 388 ng·h/mL. The CL/F ([1]; single dose, 6 mg, N 4) was 15.4 L/h, the Cmax ([1]; single dose, 6 mg, N 4) was 38.1 ng/mL and the T1/2 ([1]; single dose, 6 mg, N 4) was 11.4 h. For the same compound, the Vd/F ([1]; single dose, 6 mg, N 4) was 254 L, the Tmax ([1]; single dose, 6 mg, N 4) was 1.48 h and the AUC0-t ([1]; single dose, 8 mg, N 8) was 453 ng·h/mL. For the same compound, the “AUC0-∞” value ([1]; single dose, 8 mg, N 8) was 661 ng·h/mL, the CL/F ([1]; single dose, 8 mg, N 8) was 12.1 L/h and the Cmax ([1]; single dose, 8 mg, N 8) was 64.2 ng/mL. It also gave a T1/2 ([1]; single dose, 8 mg, N 8) of 15.4 h, a Vd/F ([1]; single dose, 8 mg, N 8) of 269 L and a Tmax ([1]; single dose, 8 mg, N 8) of 1.21 h. The AUC0-t ([1]; single dose, 12 mg, N 4) was 1050 ng·h/mL, the “AUC0-∞” value ([1]; single dose, 12 mg, N 4) was 1330 ng·h/mL and the CL/F ([1]; single dose, 12 mg, N 4) was 9.03 L/h. For the same compound, the Cmax ([1]; single dose, 12 mg, N 4) was 147 ng/mL, the T1/2 ([1]; single dose, 12 mg, N 4) was 11.7 h and the Vd/F ([1]; single dose, 12 mg, N 4) was 153 L. For the same compound, the Tmax ([1]; single dose, 12 mg, N 4) was 2.18 h, the “Effect on downstream MAPK pathway” value [2] was “blocks the downstream MAPK pathway” and the “DLTs or SAEs” value ([3]; 6 mg or lower, as of October 20, 2020, dose escalated from 0.2 mg to 15 mg) was “no DLTs or SAEs were observed”. For the same compound, the Tolerability ([3]; first-in-human study, NRAS mut+ melanoma) was “well tolerated” and the RP2D ([3]; phase 1a study, advanced NRAS mut+ melanoma) was 12 mg.
